Test results taken from US8501750B2, “Heterocyclic compound and use thereof” (Takeda Pharmaceutical Company Limited, priority 2007, dated 2013).
Counter-ions that a name gives are not always drawn. Like-named read-outs stand apart in the source and are kept apart here.

How the values were obtained:
[1] = molecular target: AT1 receptor (Homo sapiens (Human), UniProt P30556); assay: AT1 receptor binding inhibitory action
[2] = molecular target: PPARγ (Homo sapiens (Human), UniProt P37231); assay: PPARγ activating action (luciferase reporter in PPARγ:RXRα:4ERPP/CHO-K1 cells); format: cell-based; details: CHO-K1, 24 h, read-out: PPARγ activating action (activation % (1 μM))
Description: Then the medium was removed from the 96-well half area white plate, 45 μl of Ham's F12 medium containing 0.1% fatty acid-free bovine serum albumin (BSA) and 5 μl of test compound were added, and the cells were cultured in a CO2 gas incubator at 37° C. for 1 day. The medium was removed and 20 μl of PicaGene 7.5 [manufactured by Dainippon Ink and Chemicals Corporation, Japan] diluted 2-fold with HBSS (HANKS' BALANCED SALT SOLUTION) [manufactured by BIO WHITTAKER, USA] was added. After stirring, the luciferase activity was determined using 1420 ARVO Multilabel Counter [manufactured by PerkinElmer, USA]. […] A CHO-K1 cell cultured in a 150 cm^2 cell culture flask [manufactured by Corning Costar Corporation, USA] containing Ham's F12 medium [manufactured by INVITROGEN, USA] supplemented with 10% fetal bovine serum [manufactured by INVITROGEN, USA] was scraped by treating with 0.5 g/L trypsin-0.2 g/L EDTA (ethylenediaminetetraacetic acid) [manufactured by Life Technologies, Inc., USA], and then the cell was washed with PBS (Phosphate-buffered saline) [manufactured by INVITROGEN, USA], centrifuged (1000 rpm, 5 minutes) and suspended in PBS. Subsequently, DNA was introduced into the cell under the conditions shown below using GENE PULSER [manufactured by Bio-Rad Laboratories, USA]. […] Subsequently, the cell was transferred into a F12 medium containing 10% fetal bovine serum and cultured for 24 hours, and then the cell was scraped again and centrifuged, and then suspended in Ham's F12 medium containing 10% fetal bovine serum supplemented with 500 μg/ml of Geneticin [manufactured by INVITROGEN, USA] and 250 μg/ml of Zeocin [manufactured by INVITROGEN, USA]. The obtained suspension was diluted to the density of 10^4 cells/ml and inoculated in a 96-well plate [manufactured by Corning Costar Corporation, USA], which was cultured in a CO2 gas incubator at 37° C., whereby obtaining a Geneticin- and Zeocin-resistant transformant.

[3] = test compound 1 μM, luciferase activity relative to control compound X (1 μM) = 100%, non-administration group = 0%

Sequence of PPARγ (P37231 29-505): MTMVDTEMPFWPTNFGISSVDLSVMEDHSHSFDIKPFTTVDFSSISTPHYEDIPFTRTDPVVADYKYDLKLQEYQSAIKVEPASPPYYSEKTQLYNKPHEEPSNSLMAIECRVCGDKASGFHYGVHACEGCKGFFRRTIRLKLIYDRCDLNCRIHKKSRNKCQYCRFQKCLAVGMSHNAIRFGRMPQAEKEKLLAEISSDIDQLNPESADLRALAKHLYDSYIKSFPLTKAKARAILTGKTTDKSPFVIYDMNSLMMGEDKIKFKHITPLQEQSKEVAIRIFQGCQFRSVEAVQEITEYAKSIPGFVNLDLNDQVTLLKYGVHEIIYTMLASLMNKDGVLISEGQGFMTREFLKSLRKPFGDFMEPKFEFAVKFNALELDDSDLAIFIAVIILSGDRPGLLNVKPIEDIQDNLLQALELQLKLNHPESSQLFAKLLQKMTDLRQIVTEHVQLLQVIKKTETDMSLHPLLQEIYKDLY
Sequence of PPARγ (P19793 whole entry partner): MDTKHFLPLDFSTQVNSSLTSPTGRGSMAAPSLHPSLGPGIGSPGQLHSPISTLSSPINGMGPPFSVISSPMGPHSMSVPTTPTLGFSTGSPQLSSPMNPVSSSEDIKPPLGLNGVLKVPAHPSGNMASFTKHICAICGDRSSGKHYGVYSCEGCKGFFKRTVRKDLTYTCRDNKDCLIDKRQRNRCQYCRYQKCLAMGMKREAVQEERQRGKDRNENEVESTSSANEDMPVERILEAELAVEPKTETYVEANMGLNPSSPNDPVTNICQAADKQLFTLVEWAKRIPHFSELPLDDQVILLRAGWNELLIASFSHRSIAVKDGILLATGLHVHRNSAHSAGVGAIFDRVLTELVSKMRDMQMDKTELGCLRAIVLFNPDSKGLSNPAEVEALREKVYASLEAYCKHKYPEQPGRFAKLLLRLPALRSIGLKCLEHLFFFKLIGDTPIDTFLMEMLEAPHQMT
Sequence of AT1 receptor (P30556 whole entry): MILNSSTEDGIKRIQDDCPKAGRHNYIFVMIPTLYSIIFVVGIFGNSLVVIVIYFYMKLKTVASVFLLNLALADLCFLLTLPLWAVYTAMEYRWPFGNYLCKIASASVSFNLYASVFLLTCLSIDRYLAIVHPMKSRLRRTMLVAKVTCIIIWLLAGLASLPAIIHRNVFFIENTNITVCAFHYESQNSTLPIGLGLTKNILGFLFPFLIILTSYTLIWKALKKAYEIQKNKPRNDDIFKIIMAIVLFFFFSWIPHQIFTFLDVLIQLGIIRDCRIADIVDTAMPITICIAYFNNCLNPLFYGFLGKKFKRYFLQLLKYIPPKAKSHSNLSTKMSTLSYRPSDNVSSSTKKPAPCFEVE

Compound | IC50 [1] | activation at 1 µM [2, 3] | activation at 1 µM [2]
O=c1[nH]c(-c2ccccc2-c2ccc(Cn3c(=O)n(CCc4ccc(Cl)cc4)c(=O)c4cc(CC(F)(F)F)sc43)cc2)no1 [Ex. 58, 3-[2-(4-chlorophenyl)ethyl]-1-{[2′-(5-oxo-4,5-dihydro-1,2,4-oxadiazol-3-yl)biphenyl-4-yl]methyl}-6-(2,2,2-trifluoroethyl)thieno[2,3-d]pyrimidine-2,4(1H,3H)-dione] | 1.6 nM | 27% | –
Cc1ccc(CCn2c(=O)c3cc(CC(F)(F)F)sc3n(Cc3ccc(-c4ccccc4-c4noc(=O)[nH]4)cc3)c2=O)cc1 [Ex. 59, 3-[2-(4-methylphenyl)ethyl]-1-{[2′-(5-oxo-4,5-dihydro-1,2,4-oxadiazol-3-yl)biphenyl-4-yl]methyl}-6-(2,2,2-trifluoroethyl)thieno[2,3-d]pyrimidine-2,4(1H,3H)-dione] | 1.2 nM | 58% | –
O=C(Cn1c(=O)c2cc(C3CC3)sc2n(Cc2ccc(-c3ccccc3-c3noc(=O)[nH]3)cc2)c1=O)c1ccc(F)cc1 [Ex. 63, 6-cyclopropyl-3-[2-(4-fluorophenyl)-2-oxoethyl]-1-{[2′-(5-oxo-4,5-dihydro-1,2,4-oxadiazol-3-yl)biphenyl-4-yl]methyl}thieno[2,3-d]pyrimidine-2,4(1H,3H)-dione] | 1.1 nM | 31% | –
CCc1cc2c(=O)n(CC(=O)c3ccc(OC)cc3F)c(=O)n(Cc3ccc(-c4ccccc4-c4noc(=O)[nH]4)cc3)c2s1 [Ex. 73, 6-ethyl-3-[2-(2-fluoro-4-methoxyphenyl)-2-oxoethyl]-1-{[2′-(5-oxo-4,5-dihydro-1,2,4-oxadiazol-3-yl)biphenyl-4-yl]methyl}thieno[2,3-d]pyrimidine-2,4(1H,3H)-dione] | 1.5 nM | 35% | –
COc1ccccc1C(=O)Cn1c(=O)c2cc(C3CC3)sc2n(Cc2ccc(-c3ccccc3-c3noc(O)n3)cc2)c1=O [Ex. 99, 6-cyclopropyl-3-[2-(2-methoxyphenyl)-2-oxoethyl]-1-{[2′-(5-oxo-4,5-dihydro-1,2,4-oxadiazol-3-yl)biphenyl-4-yl]methyl}thieno[2,3-d]pyrimidine-2,4(1H,3H)-dione potassium salt] | 1.2 nM | – | 56%
COc1ccc(C(=O)Cn2c(=O)c3cc(C4CC4)sc3n(Cc3ccc(-c4ccccc4-c4noc(O)n4)cc3F)c2=O)cc1 [Ex. 105, 6-cyclopropyl-1-{[3-fluoro-2′-(5-oxo-4,5-dihydro-1,2,4-oxadiazol-3-yl)biphenyl-4-yl]methyl}-3-[2-(4-methoxyphenyl)-2-oxoethyl]thieno[2,3-d]pyrimidine-2,4(1H,3H)-dione potassium salt] | 1 nM | – | 34%

Further compounds by falling IC50 [1], results first:

IC50 [1] | activation at 1 µM [2, 3] | Compound | activation at 1 µM [2]
1 nM | 42% | O=c1[nH]c(-c2ccccc2-c2ccc(Cn3c(=O)n(CCc4cccc(F)c4)c(=O)c4cc(CC(F)(F)F)sc43)cc2)no1 [Ex. 60, 3-[2-(3-fluorophenyl)ethyl]-1-{[2′-(5-oxo-4,5-dihydro-1,2,4-oxadiazol-3-yl)biphenyl-4-yl]methyl}-6-(2,2,2-trifluoroethyl)thieno[2,3-d]pyrimidine-2,4(1H,3H)-dione] | –
1 nM | 27% | CCc1cc2c(=O)n(CC(=O)c3ccc(OC)cc3C)c(=O)n(Cc3ccc(-c4ccccc4-c4noc(=O)[nH]4)cc3)c2s1 [Ex. 76, 6-ethyl-3-[2-(4-methoxy-2-methylphenyl)-2-oxoethyl]-1-{[2′-(5-oxo-4,5-dihydro-1,2,4-oxadiazol-3-yl)biphenyl-4-yl]methyl}thieno[2,3-d]pyrimidine-2,4(1H,3H)-dione] | –
0.77 nM | 37% | CCc1cc2c(=O)n(CC(=O)c3ccc(OC)cc3)c(=O)n(Cc3ccc(-c4ccccc4-c4noc(=O)[nH]4)cc3F)c2s1 [Ex. 83, 6-ethyl-1-{[3-fluoro-2′-(5-oxo-4,5-dihydro-1,2,4-oxadiazol-3-yl)biphenyl-4-yl]methyl}-3-[2-(4-methoxyphenyl)-2-oxoethyl]thieno[2,3-d]pyrimidine-2,4(1H,3H)-dione] | –
